Data on one molecule can be found in patent US20090215884A1, “METHOD FOR WOUND HEALING” (priority 2005, published 2009).

Molecules are shown by their SMILES. Some results are limits rather than exact numbers.

In one series the test system is epidermal keratinocytes. Briefly: MTT cell viability and proliferation, epidermal keratinocytes. The class given is cell-based, human. As to conditions: 100 μg/ml PEP005. On the procedure:
Human, adult, epidermal keratinocytes, were purchased cryopreserved from Cascade Biologics Inc., Nottinghamshire, U.K. These cells (>500,000 viable cells/vial) were tested to be >70% viable, with the capacity to proliferate for at least 16 population doublings. The epidermal keratinocytes were cultured in serum-free, EpiLife® Medium (Cascade Biologics Inc.), supplemented with antibiotics (100 U/ml penicillin G sodium, […] streptomycin sulphate and 0.25 μg/ml amphotericin B) and EpiLife® Defined Growth Supplement (EDGS, consisting of purified bovine serum albumin, purified bovine transferring, hydrocortisone, recombinant human insulin-like growth factor type-1, prostaglandin E2 and recombinant human epidermal growth factor, Cascade Biologics Inc.). Epidermal keratinocytes cultures were maintained at 37° C., in a 5% CO2/95% air atmosphere, with the culture medium being changed every 2-3 days. Epidermal keratinocytes were used between 4-6 passages, for all experiments.
Prior to use, the PEP005/DMSO stock solution was removed from 4° C. storage and warmed to room temperature. […]

For the next series, the system named is Me10538 cells. The experiment in a line: Cytokine production by PEP005-treated human melanoma cells. The class given is cell-based. As to conditions: 6 h, supernatant. On the procedure:
Cytokine production by PEP005-treated human cells Confluent cultures of Me10538 cells, keratinocytes, fibroblasts and neutrophils were incubated for 6 h in the absence or presence of PEP005 (1-100 ng/ml). The supernatants were harvested and analyzed for the presence of the following cytokines; TNF-α, IL-6 and IL-8 using a multiplex detection kit (Biosource International, Nivelles, Belgium). Units of detected proteins are pg/ml.

With `C/C=C(/C)C(=O)O[C@H]1C(C)=C[C@]23C(=O)[C@@H](C=C(CO)[C@@H](O)[C@]12O)[C@H]1[C@@H](C[C@H]3C)C1(C)C` [PEP005, ingenol-3-angelate], the “keratinocyte cell viability/proliferation (MTT)” value in the series on epidermal keratinocytes is “cytotoxic effect”. In addition, the IL-8 in the series with Me10538 cells (PEP005 1 ng/ml) is less than 2 pg/mL; in the series with Me10538 cells (PEP005 5 ng/ml), 210 ± 6 pg/mL; in the series on Me10538 cells (PEP005 10 ng/ml), 737 ± 26 pg/mL; in the series with Me10538 cells (PEP005 100 ng/ml), 390 ± 18 pg/mL.
